The values below are quoted from earlier work in publication PMC8780741, “Integration of In Silico, In Vitro and In Situ Tools for the Preformulation and Characterization of a Novel Cardio-Neuroprotective Compound during the Early Stages of Drug Development” (Pharmaceutics, 2022).

Details of this series: method as in PMID 15832504. The note with it: reference compound for the permeability cut-off; cited from earlier work.

Regarding `COCCc1ccc(OCC(O)CNC(C)C)cc1` (stereo not shown) [Metoprolol], the logP is recorded as 1.72.
